Publication PMC9936538, “Structure–Activity Relationship of N-Ethyl-Hexedrone Analogues: Role of the α-Carbon Side-Chain Length in the Mechanism of Action, Cytotoxicity, and Behavioral Effects in Mice” (ACS Chemical Neuroscience, 2023)
pIC50, pKi: −log10 of the molar value.

Experiments:
[1] = target: T1, hDAT (Homo sapiens, UniProt Q01959); assay: Monoamine uptake inhibition, [3H]MPP+ uptake at hDAT in transfected HEK293 cells; format: cell-based
T1 construct: expressed in transfected cells; host or cells: HEK293
T1 sequence (Q01959 whole entry): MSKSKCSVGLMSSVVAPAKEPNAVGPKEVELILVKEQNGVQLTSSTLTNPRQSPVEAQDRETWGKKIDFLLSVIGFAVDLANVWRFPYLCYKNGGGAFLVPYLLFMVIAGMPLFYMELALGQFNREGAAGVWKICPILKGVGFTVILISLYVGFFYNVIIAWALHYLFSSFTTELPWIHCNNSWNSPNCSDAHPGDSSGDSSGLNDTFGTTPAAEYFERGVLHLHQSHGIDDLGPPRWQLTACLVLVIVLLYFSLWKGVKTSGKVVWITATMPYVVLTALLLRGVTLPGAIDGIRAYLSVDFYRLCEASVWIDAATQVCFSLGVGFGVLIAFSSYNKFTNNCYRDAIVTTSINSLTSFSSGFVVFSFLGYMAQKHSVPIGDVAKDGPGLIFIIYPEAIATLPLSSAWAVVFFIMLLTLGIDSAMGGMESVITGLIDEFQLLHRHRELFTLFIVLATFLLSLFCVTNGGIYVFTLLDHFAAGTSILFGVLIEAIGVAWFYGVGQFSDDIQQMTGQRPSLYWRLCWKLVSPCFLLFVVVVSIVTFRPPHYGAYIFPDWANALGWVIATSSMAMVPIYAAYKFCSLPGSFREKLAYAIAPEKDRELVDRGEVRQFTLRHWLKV
Protocol: (§1) Human embryonic kidney cells (HEK293) stably transfected with the human DAT and SERT were used for both the uptake inhibition and transporter binding assays.[6] Cells were cultured in DMEM supplemented with heat-inactivated 10% fetal bovine serum (FBS), […], and 100 U/mL penicillin at 37 °C in a 5% CO2 humidified atmosphere. Geneticin (G418; 50 μg/mL) was added to maintain the selection process. Upon approximately 80% confluence, cells were washed with 5 mL of phosphate-buffered saline (PBS) and 1 mL of trypsin/EDTA was added. After 3 min, 9 mL of DMEM was added to stop cell trypsinization. If necessary, centrifugation was performed to pellet the cells. Cells were then resuspended, counted, and seeded onto poly-D-lysine coated (24 h/prior to the experiment) 96-well plates at a density of 0.36 million cells per well for the uptake inhibition assays.
(§2) Assays were performed as previously described.[8] On the test day, the medium was removed from the cell culture 96-well plates and immediately replaced with 200 μL of Krebs-HEPES-buffer (KHB; 10 mM HEPES, 120 mM NaCl, 3 mM KCl, 2 mM CaCl2·2H2O, 2 mM MgCl2·6H2O supplemented with 20 mM D-glucose; pH 7.3). To ensure equilibrated conditions, cells were incubated with different concentrations of the drugs in KHB at a final volume of 50 μL/well for 5 min (preincubation). The preincubation solution was removed, and cells were incubated with the tritiated compounds, 0.02 μM [^3H]MPP^+ for hDAT and 0.1 μM [^3H]5-HT for hSERT, together with various concentrations of the test drugs in KHB. The uptake incubation times were 3 min for hDAT and 1 min for hSERT. The reaction was stopped by rapid removal of the incubation solution and washout with ice-cold KHB. Cells were lysed with 1% sodium dodecyl sulfate, and lysates were subsequently transferred to vials containing scintillation fluid. Radioactivity was quantified with a beta-scintillation counter (PerkinElmer, Waltham, MA, USA). The uptake in the absence of the test drugs was normalized to 100%, and the uptake in the presence of various concentrations of cathinones was expressed as a percentage thereof. […] Four independent experiments carried out on triplicates were performed.
(§3) For in vitro assays, data were normalized with 100% defined as the mean of the technical replicates in the control group and expressed as mean ± SEM. Nonlinear regression was used to fit the different competition curves. Data were plotted and best fitted to a sigmoidal dose–response curve from which an IC50 or LC50 value was obtained. Transporter ratios were calculated as (1/DAT IC50: 1/SERT IC50). […] The Cheng–Prusoff equation was used to calculate Ki (affinity): Ki = EC50/(1 + [radioligand concentration/Kd]).[65] The sample size for behavioral experiments was determined using GPower software. One-way or two-way ANOVA, and subsequent Tukey’s posthoc test, conducted only if F was significant, was used to determine the effects of cathinones on cytotoxicity, HLA, OF, and CPP experiments. The α error probability was set at 0.05 (p < 0.05). The exact size group for the behavioral experiments is shown in the corresponding figure legends. All statistic calculations were carried out using GraphPad Prism (GraphPad software, San Diego, CA, USA).

[2] = tested on: Swiss CD-1 mice; assay: Conditioned place preference (CPP); format: in vivo; conditions: 10 mg/kg i.p.
Protocol: Male Swiss CD-1 mice (Janvier, Le Genest, France) weighing 30–35 g (6–8 weeks old), housed in temperature-controlled conditions (22 ± 1 °C) under a 12 h light/dark cycle and with free access to food and drinking water (standard laboratory diet, Panlab SL, Barcelona, Spain), were randomly assigned to an experimental group. Efforts were made to minimize animal use and suffering.
The potential of the studied compounds to induce reward was determined using a place conditioning paradigm, as described.[6] For this experiment, an apparatus with two distinct compartments, with differences in tactile and visual cues, communicated by a central corridor, has been used. In brief, CPP was performed in three phases: preconditioning test, conditioning, and postconditioning test. During the preconditioning phase (day 0), mice were placed in the middle of the corridor and had free access to both compartments for 15 min. The time spent in each compartment was recorded and monitored using a specific tracking software (Smart 3.0 Panlab, Barcelona, Spain). […] In the alternative session, mice received a saline i.p. injection and were placed for 20 min in the other compartment. Mice in the control group received a saline injection in every session. The compartment and session in which mice received the drug were randomized. On the test day (postconditioning phase), the same conditions as in the preconditioning phase were applied. A preference score was calculated as the difference between the time spent in the drug-paired compartment in the postconditioning test minus the time spent in the preconditioning phase.

[3] = target: T2, hSERT (Homo sapiens, UniProt P31645); assay: Monoamine uptake inhibition, [3H]5-HT uptake at hSERT in transfected HEK293 cells; format: cell-based; conditions: transfected HEK293 cells; mean ± SEM of four independent experiments; read-out: [3H]5-HT uptake at hSERT, IC50
T2 construct: expressed in transfected cells; host or cells: HEK293
T2 sequence (P31645 whole entry): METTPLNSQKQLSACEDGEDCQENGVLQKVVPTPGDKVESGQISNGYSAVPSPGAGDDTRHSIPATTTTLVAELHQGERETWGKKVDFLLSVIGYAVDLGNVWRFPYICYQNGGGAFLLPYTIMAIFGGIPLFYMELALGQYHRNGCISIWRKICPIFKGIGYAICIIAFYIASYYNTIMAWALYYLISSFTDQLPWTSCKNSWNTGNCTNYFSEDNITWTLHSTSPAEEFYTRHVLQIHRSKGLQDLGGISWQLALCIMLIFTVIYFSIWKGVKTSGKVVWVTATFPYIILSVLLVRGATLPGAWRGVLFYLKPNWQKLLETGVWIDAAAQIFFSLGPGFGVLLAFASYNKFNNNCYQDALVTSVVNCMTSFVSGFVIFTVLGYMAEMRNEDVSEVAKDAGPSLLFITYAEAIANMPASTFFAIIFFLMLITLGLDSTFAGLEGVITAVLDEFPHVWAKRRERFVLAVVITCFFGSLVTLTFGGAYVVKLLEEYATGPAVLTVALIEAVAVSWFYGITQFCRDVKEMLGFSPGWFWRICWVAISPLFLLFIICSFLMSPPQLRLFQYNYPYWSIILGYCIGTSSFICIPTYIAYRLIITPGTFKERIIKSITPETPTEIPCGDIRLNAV
Protocol: as §1, §2, §3

[4] = target: T1, hDAT; assay: Transporter binding, [3H]WIN 35,428 binding at hDAT (HEK293 membranes); conditions: membranes of transfected HEK293 cells; mean ± SEM of four independent experiments; read-out: [3H]WIN 35,428 binding at hDAT, Ki
Protocol: (§4) For membrane preparation, cells were harvested from 80 to 90% confluent dishes. HEK293 cells were washed with ice-cold phosphate-buffered saline (PBS), mechanically detached from the dish using a plastic scraper, and pelleted by centrifugation (400g for 10 min at 4 °C). The pellet was resuspended in HME buffer (20 mM HEPES NaOH, 1 mM EDTA, 2 mM MgCl2; pH 7.4), subjected to two freeze–thaw cycles in liquid nitrogen and homogenized through sonication at 4 °C. Membranes were then collected by centrifugation (40,000g for 30 min at 4 °C) and resuspended in an appropriate volume of HME buffer. The different membrane preparations aliquots were kept at −80 °C. Protein concentration was determined using the Bio-Rad Protein Reagent (Bio-Rad Laboratories, Hercules, CA).
(§5) Binding assays were performed as described.[6] […] This nonspecific binding also allows subtracting from the total binding values of the binding to other components such as membrane lipids or microfiber filters. Incubation was performed for 1 h at 22 °C. Binding reactions are stopped by rapid filtration of the membranes through GF/C glass microfiber filters presoaked with 0.5% polyethyleneimine and rapid washing with ice-cold wash buffer (120 mM NaCl, 2 mM MgCl2, 10 mM Tris, and 100 μM ZnCl2 for hDAT, and […], 2 mM MgCl2, and 10 mM Tris, for hSERT). Thereafter, the filters are placed into vials, a scintillation cocktail is added and trapped radioactivity is quantified by liquid scintillation counting. Specific binding of each drug to the transporter was defined as the difference between total binding (binding buffer in absence of the drug) and nonspecific binding. For each cathinone, four independent experiments carried out on duplicates were performed.
as §3

[5] = target: T2, hSERT; assay: Transporter binding, [3H]imipramine binding at hSERT (HEK293 membranes); conditions: membranes of transfected HEK293 cells; mean ± SEM of four independent experiments; read-out: [3H]imipramine binding at hSERT, Ki
Protocol: as §4, §5, §3

[6] = Cytotoxicity in NGF-differentiated PC12 cells, WST-8 cell viability assay; format: cell-based; conditions: rat, WST-8, 24 h exposure, mean ± SEM of 3–4 experiments, read-out: LC50 (approximated), cell viability
Protocol: Pheochromocytoma cells (PC12) cells were cultured in collagen-coated dishes in DMEM supplemented with heat-inactivated 5% FBS, 10% horse serum, 10 mM HEPES, 2 mM glutamine, 25 UI/mL penicillin, and 25 μg/mL streptomycin (maintenance medium) and grown at 37 °C in a humidified 5% CO2 atmosphere. Cell differentiation was performed as described[54] with minor modifications. In brief, cells were seeded (250.000 cells/well) onto 96-well plates in the maintenance medium, and after 24 h, the medium was changed to a differentiation medium containing 50 ng/mL NGF. After 24 h, neurite outgrowth was already apparent.
Treatments with different concentrations of the drug in DMEM were performed 48 h after cell differentiation. 10 μL of the tested drug was added per well, in triplicate, and cells were incubated for 24 h at 37 °C in a humidified 5% CO2 atmosphere. Thereafter, the medium was removed and immediately replaced with a maintenance medium. 10 μL of the CCK-8 Cell Counting Kit, based on 2-(2-methoxy-4-nitrophenyl)-3-(4-nitrophenyl)-5-(2,4-disulfophenyl)-2H-tetrazolium, monosodium salt (WST-8), was added per well and was incubated for 2 h at 37 °C in a humidified 5% CO2 atmosphere. This method has been defined as a good alternative to the 3-(4,5-dimethylthiazol-2-yl)-2,5-diphenyltetrazoliumbromide (MTT) assay.[63] Optical density was measured at 450 nm, using a microplate reader.
For in vitro assays, data were normalized with 100% defined as the mean of the technical replicates in the control group and expressed as mean ± SEM. Nonlinear regression was used to fit the different competition curves. Data were plotted and best fitted to a sigmoidal dose–response curve from which an IC50 or LC50 value was obtained. Transporter ratios were calculated as (1/DAT IC50: 1/SERT IC50). Although IC50 values at inhibiting 5-HT uptake for some compounds tested are expressed as >100 μM for clarity purposes, DAT/SERT ratios were calculated with the original raw data. The Cheng–Prusoff equation was used to calculate Ki (affinity): Ki = EC50/(1 + [radioligand concentration/Kd]).[65] The sample size for behavioral experiments was determined using GPower software. One-way or two-way ANOVA, and subsequent Tukey’s posthoc test, conducted only if F was significant, was used to determine the effects of cathinones on cytotoxicity, HLA, OF, and CPP experiments. The α error probability was set at 0.05 (p < 0.05). The exact size group for the behavioral experiments is shown in the corresponding figure legends. All statistic calculations were carried out using GraphPad Prism (GraphPad software, San Diego, CA, USA).

CCCC(C(=O)c1ccccc1)N1CCCC1 (stereo not drawn) [α-PVP, alpha-pyrrolidinovalerophenone, reference compound]
hDAT/hSERT inhibition ratio ([1]; 1/DAT IC50:1/SERT IC50, calculated with the original raw data): 3222
pIC50 ([1]; transfected HEK293 cells, mean ± SEM of four independent experiments, read-out: [3H]MPP+ uptake at hDAT, IC50): 6.91
CPP rewarding effect vs saline [2]: induced rewarding effects
pIC50 [3]: < 4.00
pKi [4]: 7.72
pKi [5]: < 4.00

CN[C@@H](C)Cc1ccccc1 [Meth, methamphetamine, reference compound]
CC50 at 24 h [6]: 8730 µM

COC(=O)[C@H]1[C@@H](OC(=O)c2ccccc2)C[C@@H]2CC[C@H]1N2C [Cocaine, reference compound]
CPP rewarding effect vs saline [2]: induced rewarding effects
